Data from ChEMBL document CHEMBL1201862, “PubChem BioAssay data set” (2004).
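In this assay, cells in 96-well plates receive the compound at five concentrations for 48 hours. Endpoints are linearly interpolated between the surrounding concentrations. Abbreviation: GI50, concentration required for 50% inhibition of growth.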 The source made the active and inactive calls. Rule as the data show it: active = GI50 up to about 1.1 µM and inactive = higher.

What was measured:
Test in all cases: growth of human tumour cells (NCI), 48 h
SNB-78 = test system: SNB-78
DMS-114 = test system: DMS-114
HOP-18 = test system: HOP-18
DMS-273 = test system: DMS-273
DLD-1 = test system: DLD-1
XF498 = test system: XF498
M19-MEL = test system: M19-MEL
LXFL 529 = test system: LXFL 529
RXF 631 = test system: RXF 631

Measured: GI50

Nc1nncc2c1c(Br)cn2C1OC(CO)C(O)C1O (stereo not drawn)
inactive: SNB-78 > 66.4 µM | DMS-114 9.35 µM | HOP-18 > 67.6 µM | DMS-273 7.23 µM | DLD-1 4.82 µM | XF498 > 41.7 µM | M19-MEL > 100 µM | LXFL 529 23.7 µM | RXF 631 2.84 µM

C=C[C@]1(C)CCC2=C(CCC3C2(C)CCC[C@]3(C)CO)C1 (stereo partly drawn)
inactive: SNB-78 79.4 µM | DMS-114 31.2 µM | HOP-18 > 100 µM | DMS-273 41.8 µM | DLD-1 50 µM | XF498 52.6 µM | M19-MEL 43.5 µM | LXFL 529 56.1 µM | RXF 631 51.1 µM
